According to patent publication US20050074867A1, “Preservation of competent cells at ambient temperatures” (priority 2001, published 2005):

Test system: Escherichia coli ATCC strain MM294 cells
Test: Electroporation of E. coli MM294 cells with pUC18 (survival and efficiency)
Format: cell-based
Conditions: cells loaded with 10% MAG, preserved (dried); average of three independent experiments
Procedure: (2) Electroporation of fresh E. coli electrocompetent cells: Two aliquots of the concentrated cells (50 μl each) were transferred into pre-chilled Eppendorf tubes (1.5 ml) and 2 μl of pUC18 plasmid DNA (approx. 300 ng/μl) were added to the tubes. The [cells+DNA] mixtures were incubated on ice for 5 minutes and transferred into pre-chilled cuvettes for electroporation. The cells were electroporated by using a BTX T-100 electroporator, at 625 or at 800 volts (V) in BTX cuvettes (0.1 cm gap, P/N 610 Disposable Cuvettes) with a time constant “r” equal 5 msec. Under the pulse conditions described above, the cells were subjected to an electrical field “E” equal to 6.25 kV/cm or 8.0 kV/cm.
Immediately after the pulse, the cells were transferred into small glass tubes (10×100 mm) with 0.5 ml of “outgrowth medium” (L-broth+20% sucrose+10 mM CaCl2). The electroporated bacteria were incubated at 37° C. with moderate shaking (150 rpm) for 60 minutes. When the 60 minutes period elapsed, the cells were diluted in “outgrowth medium” and duplicate samples were spread plated on L-agar plates with no antibiotic (to determine electroporation survival) and on L-agar plates with 50 μg/ml or 100 μg/ml of ampicillin (selective marker on pUC18 plasmid; to determine electroporation efficiency). The plates were incubated overnight at 37° C. and the colonies were counted the next day.
(6) Electroporation of dried (preserved) E. coli cells: One or two 50 μl aliquots were removed from each rehydrated vial and transferred to pre-chilled Eppendorf tubes. The cells were mixed with pUC18 plasmid DNA (300 ng/μl) and electroporated using the conditions described previously for the electroporation of fresh electrocompetent cells.
Electroporation survival was calculated as the number of viable cells recovered after electrical pulse per total number of electroportated cells. Electroporation efficiency was calculated as the number of transformants (cells which received pUC18 plasmid DNA) per number of cells recovered after electroporation (electroporation survival). When applicable, the electroporation efficiency was also expressed as number of transformants per 1 μg of pUC18 DNA (Cfu/μg).
In this experiment, the cells were washed twice in ice-cold 20% sucrose and concentrated 100-fold after the second wash. Additionally, four samples were prepared (A, B, C, and D). […] Additional solution consisting of 22.5% 4:1 sucrose:MAG was prepared and evaluated for preservation of the cells (sample D). […] Electroporation survival and efficiencies in samples rehydrated with solutions containing different amounts of sucrose were determined. […] Electroporation survival and efficiencies were determined and compared.

## COC1OC(CO)C(O)C(O)C1O (stereo not shown) [MAG, a-methyl-glucoside]
  Electroporation Efficiency 10^−3%: 5.6 10^−3%
  Electroporation Efficiency Cfu/ml: 1.7 × 10^5 Cfu/ml
  Electroporation Survival (%): 28.6%
  Electroporation Survival Cfu/ml: 3.0 × 10^9 Cfu/ml
